Reference: patent publication US20240083910A1, “AMIDO-SUBSTITUTED PYRIDYL COMPOUNDS AND METHODS OF USE THEREOF FOR THE TREATMENT OF HERPESVIRUSES” (Merck Sharp & Dohme LLC, priority 2020, published 2024)
pEC50, pIC50: −log10 of the molar value. Where two headings read alike, the source gives them in different places.

Legend:
HCMV Strain AD169 = test: Viral qPCR assay, HCMV; assay type: cell-based, Human cytomegalovirus; settings: MRC-5 cells, 0.05-0.1 pfu/cell, growth media or 50% fetal bovine serum, viral genome copies by qPCR, read-out: CMV Cell (EC50)
Experimental: (§1) MRC5 cells, Vero cells, and MeWo cells were obtained from ATCC, and were maintained at 37° C./5% CO2/90% relative humidity in Minimal Essential Medium with 10% fetal bovine serum, […] L-glutamine, 100 units/ml penicillin and 100 ug/ml streptomycin. Assay plates were prepared by dispensing compounds dissolved in DMSO into wells of 384 well collagen-coated plates using an ECHO acoustic dispenser. Each compound was tested in a 10-point, serial 3-fold dilution. Controls included uninfected cells and infected cells treated only with DMSO. Assays were initiated by mixing selected cells, in suspension, with virus, and dispensing 50 μl/well infected cells to pre-plated compounds. Plates were incubated at 37° C./5% CO2/90% relative humidity for ˜72 hrs to permit genomic replication, and infected cells were lysed by the addition of an equal volume of lysis buffer (10 mM Tris-HCl, pH8, 50 mM KCl, 2 mM MgCl2, 0.45% NP-40, 0.45% Tween-20, and 100 μg/ml proteinase K). An aliquot of the lysate was transferred to a 384-well PCR plate and incubated at 56° C. for 1 hour and then at 95° C. for 10 min. Levels of a viral gene and of the cellular control, PPIA (Thermo Fisher Assay ID=Hs04194521_s1), were measured in separate 10 ul qPCR assays using TaqMan® Gene Expression Master Mix (Applied Biosystems), and an 7900HT Fast Real-Time PCR System with 384-Well Block Module. 7-point, serial 10-fold dilutions of a plasmid standard were run on each plate to generate a standard curve, and genome copies numbers were calculated by plotting experimental Ct onto linear regression of the standard curve. Viral genome copy numbers were normalized by cellular control copy number, and compound effects were normalized to the window defined by the controls. Calculated % effects were fit using a 4-parameter algorithm, and EC50 was reported.
(§2) MRC5 cells, Vero cells, and MeWo cells were obtained from ATCC, and were maintained at 37° C./5% CO2/90% relative humidity in Minimal Essential Medium with 10% fetal bovine serum, […] L-glutamine, 100 units/ml penicillin and 100 ug/ml streptomycin. Assay plates were prepared by dispensing compounds dissolved in DMSO into wells of 384 well collagen-coated plates using an ECHO acoustic dispenser. Each compound was tested in a 10-point, serial 3-fold dilution. Controls included uninfected cells and infected cells treated only with DMSO. Assays were initiated by mixing selected cells, in suspension, with virus, and dispensing 50 μl/well infected cells to pre-plated compounds. Plates were incubated at 37° C./5% CO2/90% relative humidity for ˜72 hrs to permit genomic replication, and infected cells were lysed by the addition of an equal volume of lysis buffer (10 mM Tris-HCl, pH 8, 50 mM KCl, 2 mM MgC12, 0.45% NP-40, 0.45% Tween-20, and 100 μg/ml proteinase K). An aliquot of the lysate was transferred to a 384-well PCR plate and incubated at 56° C. for 1 hour and then at 95° C. for 10 min. Levels of a viral gene were measured in 10 ul qPCR assays using TaqMan® Gene Expression Master Mix (Applied Biosystems), and an 7900HT Fast Real-Time PCR System with 384-Well Block Module. 7-point, serial 10-fold dilutions of a plasmid standard were run on each plate to generate a standard curve, and genome copies numbers were calculated by plotting experimental Ct onto linear regression of the standard curve. Compound effects on viral genome copy number were normalized to the window defined by the controls. Calculated % effects were fit using a 4-parameter algorithm, and ECso was reported.
HCMV: Strain AD169 Street was assayed in MRC-5 cells and was used at 0.05-0.1 pfu/cell. The assays were performed in either growth media or in the same media with 50% fetal bovine serum. Primer-probe set was Thermo Fisher Assay ID=AIFATFK.

[1] = molecular target: T1, Human cytomegalovirus DNA polymerase (Human cytomegalovirus, UniProt P08546); test: CMV polymerase assay (AlphaLISA); assay type: biochemical; settings: HCMV polymerase 0.2 nM, 30 min pre-incubation, 60 min at 37° C.
T1 construct: made in house; host or cells: SF21 insect cells (baculovirus vector)
Experimental: Human cytomegalovirus and varicella zoster virus DNA polymerases were expressed via baculovirus vector in SF21 cells and purified. Heterodimeric nucleic acid substrate used in the herpesvirus polymerase reactions was generated by annealing a 59-mer template to a 17-mer digoxigenin-labeled primer. Polymerase (HCMV final concentration of 0.2 nM; VZV final concentration of 0.4 nM) was combined with an inhibitor compound or DMSO in assay buffer (10 mM HEPES, pH 7.5, 25 mM KCl, 25 mM NaCl, 5 mM MgCl2, 5% glycerol, 0.67 mg/ml bovine serum albumin, and 1 mM tris(2-carboxyethyl)phosphine), and this mixture was pre-incubated for 30 minutes at room temperature in 384-well microtiter plates. The polymerization reaction was initiated by the addition of template/primer substrate (final concentration: 1.6 nM), and dNTPs (final concentration: 24 nM dCTP, 24 nMdGTP, 16 nM dATP, 16 nM dTTP, and 0.8 nM biotin-dUTP). After 60 min incubation at 37° C., reactions were terminated with quench buffer (25 mM HEPES pH 7.5, 100 mM NaCl, 0.25% Tween-20, 12 mM EDTA, and 1 mg/ml bovine serum albumin). Incorporation of biotinylated UTP was detected with 2.5-5 ug/ml anti-DIG AlphaLISA acceptor beads and 5-10 ug/ml streptavidin AlphaLISA donor beads (PerkinElmer). Compound effects were normalized to the window defined by the controls (DMSO only and pre-quenched wells) and were fit using a 4-parameter algorithm to report an IC50.

HSV-1 Strain F = test: Viral qPCR assay, HSV-1; assay type: cell-based, Herpes Simplex Virus type 1; settings: Human alphaherpesvirus 1, 72 h, Vero or MRC5 cells, 0.0005-0.004 pfu/cell, growth medium, viral genome copies by qPCR, read-out: HSV1 Cell (EC50)
Experimental: as §1, §2
HSV-1: Strain F […] was assayed in Vero or MRC5 cells and was used at 0.0005-0.004 pfu/cell in growth medium. Primer-probe set was Thermo Fisher Assay ID=AIBJZIB

VZV = test: Viral qPCR assay, VZV; assay type: cell-based, varicella zoster virus; settings: Human alphaherpesvirus 3, 72 h, MeWo or MRC5 cells, 0.04-0.1 pfu/cell, growth medium, viral genome copies by qPCR
Experimental: as §1, §2
VZV: Strain Street was maintained as an infected cell stock in MRC-5 cells. It was assayed in MeWo or MRC5 cells and was used at 0.04-0.1 pfu/cell. The assays were performed in growth medium. Primer-probe set was Thermo Fisher Assay ID=AIPAEXQ.

[2] = Human betaherpesvirus 5, AD169, MRC5, 72 h

T1 sequence (P08546 whole entry): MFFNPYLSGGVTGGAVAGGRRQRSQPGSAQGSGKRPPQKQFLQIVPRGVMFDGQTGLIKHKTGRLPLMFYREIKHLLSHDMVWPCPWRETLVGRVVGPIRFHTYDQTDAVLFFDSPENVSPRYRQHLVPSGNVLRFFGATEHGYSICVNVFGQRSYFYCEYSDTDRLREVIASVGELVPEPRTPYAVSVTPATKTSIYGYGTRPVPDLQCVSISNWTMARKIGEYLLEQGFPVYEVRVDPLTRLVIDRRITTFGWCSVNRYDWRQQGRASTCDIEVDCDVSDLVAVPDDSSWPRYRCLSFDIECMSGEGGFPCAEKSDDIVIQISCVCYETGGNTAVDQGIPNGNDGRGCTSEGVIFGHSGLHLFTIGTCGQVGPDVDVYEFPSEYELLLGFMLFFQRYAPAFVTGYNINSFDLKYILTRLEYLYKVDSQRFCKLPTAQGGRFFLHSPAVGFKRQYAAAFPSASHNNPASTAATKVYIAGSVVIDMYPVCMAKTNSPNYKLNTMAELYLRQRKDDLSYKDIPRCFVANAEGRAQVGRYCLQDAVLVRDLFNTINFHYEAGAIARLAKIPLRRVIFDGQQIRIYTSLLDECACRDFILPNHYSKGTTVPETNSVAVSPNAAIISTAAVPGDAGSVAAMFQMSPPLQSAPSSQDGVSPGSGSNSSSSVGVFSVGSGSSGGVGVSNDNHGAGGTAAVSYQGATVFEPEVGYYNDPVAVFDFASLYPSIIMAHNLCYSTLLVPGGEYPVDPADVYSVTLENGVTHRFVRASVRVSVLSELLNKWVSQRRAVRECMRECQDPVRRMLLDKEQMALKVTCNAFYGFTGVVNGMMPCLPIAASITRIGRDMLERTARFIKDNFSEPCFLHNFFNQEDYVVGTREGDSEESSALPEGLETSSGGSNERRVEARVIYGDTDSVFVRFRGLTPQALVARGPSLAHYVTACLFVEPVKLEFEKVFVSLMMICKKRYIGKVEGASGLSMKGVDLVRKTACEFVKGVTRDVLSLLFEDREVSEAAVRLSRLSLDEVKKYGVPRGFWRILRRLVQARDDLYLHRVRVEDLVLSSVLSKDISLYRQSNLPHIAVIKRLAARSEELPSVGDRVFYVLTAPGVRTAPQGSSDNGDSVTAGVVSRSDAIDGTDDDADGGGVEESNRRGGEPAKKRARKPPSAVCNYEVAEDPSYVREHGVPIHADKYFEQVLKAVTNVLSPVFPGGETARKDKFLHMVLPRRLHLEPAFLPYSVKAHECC

pIC50 ([1]; read-out: CMV (IC50))	Structure (SMILES)	pEC50 (HCMV Strain AD169; ~72 hrs)	pEC50 (HCMV Strain AD169; [2])	pEC50 (HSV-1 Strain F)	pEC50 (VZV)	pIC50 ([1]; CMV (IC50))
7.16	COc1nc(-c2ncco2)c(O[C@H]2CCN3C(=O)OC[C@@H]3C2)cc1C(=O)N[C@@H](C)c1ccc(Cl)cc1 [Compound 64]	–	6.04	6.22	5.81	–
6.92	COc1nc(-c2ccccn2)c(O[C@H]2CCN3C(=O)OC[C@@H]3C2)cc1C(=O)NCc1ccc(Cl)cc1 [Compound 52]	–	5.46	–	–	–
7.92	O=C(NCc1ccc(Cl)cc1)c1cc(O[C@H]2CCN3C(=O)OC[C@@H]3C2)c(-c2cnn(C(F)F)c2)nc1OCCF [Compound 89]	–	6.71	6.69	6.61	–
7.37	CCOc1nc(-c2cnn(C(F)F)c2)c(O[C@H]2CCN3C(=O)OC[C@@H]3C2)cc1C(=O)NCc1ccc(Cl)cc1 [Compound 101]	–	6.28	6.49	6.24	–
8.34	CC(O)COc1nc(-c2cnn(C(F)F)c2)c(O[C@H]2CCN3C(=O)OC[C@@H]3C2)cc1C(=O)NCc1ccc(Cl)cc1 (stereo partly shown) [Compound 93]	–	6.69	7.23	6.60	–
8.29	Cc1nsc(-c2nc(OCC(C)(C)O)c(C(=O)NCc3ccc(Cl)cc3)cc2O[C@H]2CCN3C(=O)OC[C@@H]3C2)n1 [Compound 87]	–	6.97	6.85	6.68	–
6.88	COc1nc(-c2ccnc3[nH]ccc23)c(O[C@H]2CCN3C(=O)OC[C@@H]3C2)cc1C(=O)NCc1ccc(Cl)cc1 [Compound 51]	–	5.48	–	–	–
–	COc1nc(C2CC2O)c(O[C@H]2CCN3C(=O)OC[C@@H]3C2)cc1C(=O)NCc1ccc(Cl)cc1 (single isomer, unassigned) [Compound 77]	6.06	–	–	–	7.50
8.06	COc1nc(-c2cnc(C3CC3)s2)c(O[C@H]2CCN3C(=O)OC[C@@H]3C2)cc1C(=O)NCc1ccc(Cl)cc1 [Compound 63]	–	6.79	6.83	6.78	–
6.79	COc1nccc(-c2nc(OC)c(C(=O)NCc3ccc(Cl)cc3)cc2O[C@H]2CCN3C(=O)OC[C@@H]3C2)n1 [Compound 53]	–	5.40	–	–	–
7.50	COc1nc(C2CC(O)C2)c(O[C@H]2CCN3C(=O)OC[C@@H]3C2)cc1C(=O)NCc1ccc(Cl)cc1 (single isomer, unassigned) [Compound 74]	–	6.45	6.57	6.15	–
7.68	COc1nc(CC(C)(C)O)c(O[C@H]2CCN3C(=O)OC[C@@H]3C2)cc1C(=O)NCc1ccc(Cl)cc1 [Compound 73]	–	6.47	6.24	6.08	–
7.60	COc1nc(-c2cc3ccccc3o2)c(O[C@H]2CCN3C(=O)OC[C@@H]3C2)cc1C(=O)NCc1ccc(Cl)cc1 [Compound 20]	–	6.23	5.84	5.73	–
8.33	O=C1CC[C@@H](COc2nc(-c3cnn(C(F)F)c3)c(O[C@H]3CCN4C(=O)OC[C@@H]4C3)cc2C(=O)NCc2ccc(Cl)cc2)N1 [Compound 99]	–	6.55	6.31	5.88	–
7.77	COc1nc(-c2cnc3[nH]ccc3c2)c(O[C@H]2CCN3C(=O)OC[C@@H]3C2)cc1C(=O)NCc1ccc(Cl)cc1 [Compound 41]	–	6.22	6.31	6.38	–
8.47	COc1nc(-c2ccc(N)nc2)c(O[C@H]2CCN3C(=O)OC[C@@H]3C2)cc1C(=O)NCc1ccc(Cl)cc1 [Compound 36]	–	6.76	7.09	7.03	–
8.08	COc1csc(-c2nc(OC)c(C(=O)NCc3ccc(Cl)cc3)cc2O[C@H]2CCN3C(=O)OC[C@@H]3C2)c1 [Compound 34]	–	6.38	6.59	5.72	–
6.72	COc1nc(-c2cc(C(F)(F)F)nn2C)c(O[C@H]2CCN3C(=O)OC[C@@H]3C2)cc1C(=O)NCc1ccc(Cl)cc1 [Compound 48]	–	5.70	–	–	–
7.63	COc1nc(-c2cc3cccc(OC)c3[nH]2)c(O[C@H]2CCN3C(=O)OC[C@@H]3C2)cc1C(=O)NCc1ccc(Cl)cc1 [Compound 54]	–	5.28	–	–	–
7.27	COc1nc(N2CC3(C(C)(C)O)CC2C3)c(O[C@H]2CCN3C(=O)OC[C@@H]3C2)cc1C(=O)NCc1ccc(Cl)cc1 [Compound 69]	–	5.83	–	–	–
7.09	COc1nc(-c2ccc3cc[nH]c3c2)c(O[C@H]2CCN3C(=O)OC[C@@H]3C2)cc1C(=O)NCc1ccc(Cl)cc1 [Compound 50]	–	5.56	–	–	–
7.10	COc1ccc(-c2nc(OC)c(C(=O)NCc3ccc(Cl)cc3)cc2O[C@H]2CCN3C(=O)OC[C@@H]3C2)nc1 [Compound 35]	–	5.71	–	–	–
6.88	COc1nc(-c2cccc3cc[nH]c23)c(O[C@H]2CCN3C(=O)OC[C@@H]3C2)cc1C(=O)NCc1ccc(Cl)cc1 [Compound 49]	–	5.56	–	–	–
7.71	COc1nc(-c2cc[nH]n2)c(O[C@H]2CCN3C(=O)OC[C@@H]3C2)cc1C(=O)NCc1ccc(Cl)cc1 [Compound 18]	–	5.92	–	–	–

Structure (SMILES)	pIC50 ([1]; read-out: CMV (IC50))	pEC50 (HCMV Strain AD169; ~72 hrs)	pEC50 (HCMV Strain AD169; [2])	pEC50 (HSV-1 Strain F)	pEC50 (VZV)	pIC50 ([1]; CMV (IC50))
COc1nc(C2CC2O)c(O[C@H]2CCN3C(=O)OC[C@@H]3C2)cc1C(=O)NCc1ccc(Cl)cc1 (single isomer, unassigned) [Compound 80]	7.00	5.49	–	–	–	–
